Patent publication US20150265642A1, “NAD BIOSYNTHESIS AND PRECURSORS IN THE PREVENTION AND TREATMENT OF INFLAMMATION” (PRESIDENT AND FELLOWS OF HARVARD COLLEGE, priority 2013, published 2015)
Entries after “also recorded” stand apart in the source; their conditions may differ.

How the values were obtained:
PGC-1α/β KO myotubes = experiment: Gene expression (qPCR) and HIF-1α immunoblot in PGC-1α/β KO myotubes; format: cell-based, mice; set-up: expression of mitochondrially-encoded ETC genes (ND1, CYTB, COX1, ATP6): dose or concentration left out as unconfirmed; settings: primary PGC-1α/β KO myotubes incubated with NMN (12 h)
Experimental: Primary myoblasts cells were isolated from WT, SIRT1 KO (Price et al., 2012) and PGC-1α/β KO (Zechner et al., 2010) mice as previously described (Price et al., 2012). WT and PGC-1α/β KO primary myoblasts were plated and allowed to differentiate into myotubes by replacing the media with low glucose DMEM supplemented with 2% horse serum (Sigma-Aldrich) for 4 days. After the differentiation the cells were infected with empty vector or flag-SIRT1 adenovirus as described before (Gerhart-Hines et al., 2007). Media was replaced with fresh DMEM supplemented with 2% horse serum (Sigma-Aldrich) for an additional 48 hr and, after that the cells were harvested for the different assays as described. To investigate the role of HIF-1α in genome asynchrony, PGC-1α/β KO primary myotubes were treated for 12 hours with 1 mM DMOG (Sigma) or 10 μM DFO (Sigma), 24 h after infection with empty vector of flag-SIRT1 adenovirus or after 12 h treatment with […] NMN (Sigma).
(§1) RNA from skeletal muscle tissue and C2C12 cells were extracted with RNeasy mini kit (Qiagen) according to the instructions and quantified using the NanoDrop 1000 spectrophotometer (Thermo Scientific). cDNA was synthesized with the iSCRIP cDNA synthesis kit (BioRad) using 600 ng of RNA. Quantitative RT-PCR reactions were performed using 1 μM of primers and LightCycler® 480 SYBR Green Master (Roche) on an LightCycler® 480 detection system (Roche). Calculations were performed by a comparative method (2-ΔCT) using 18S as an internal control. For mtDNA analysis, total DNA was extracted with DNeasy blood and tissue kit (Qiagen). mtDNA was amplified using primers specific for the mitochondrial cytochrome c oxidase subunit 2 (COX2) gene and normalized to genomic DNA by amplification of the ribosomal protein s18 (rps18) nuclear gene. Primers were designed using the IDT software (IDT) and the primer sequences can be found in Table 1.
(§2) Protein extracts from tissue or C2C12 cells were obtained by lysis in ice-cold lysis buffer (150 mM NaCl, 10 mM Tris HCl (pH 7.4), 1 mM EDTA, 1 mM EGTA, 1% Triton X-100, 0.5% NP-40) supplemented with a cocktail of protease and phosphatase inhibitors (Roche). Protein content was determined by the Bradford protein assay (Biorad), and 50 μg proteins were run on SDS-PAGE under reducing conditions. The separated proteins were then electrophoretically transferred to a polyvinylidene difluoride membrane (Perkin-Elmer). […] The immunostaining was detected using horseradish peroxidase-conjugated anti-rabbit or anti-mouse immunoglobulin for 1 h at room temperature.

HIF-1α = experiment: Immunoblot for HIF-1α in gastrocnemius of NMN-treated mice; format: in vivo
Experimental: (§3) C57BL/6J mice of 3, 6, 22, 24, or 30 months of age were obtained from the National Institutes of Aging mouse aging colony. Mice were acclimated for at least one-week prior to sacrifice. 3, and 24-month-old mice were given interperitoneal (IP) injections of 500 mg NMN/kg body weight per day or the equivalent volume of PBS for 7 consecutive days at 5:00 pm and 7:00 am on day 8 and sacrificed 4 hr after last injection. All animal studies followed the guidelines of and were approved by the Harvard Institutional Animal Care and Use Committee
C57BL/6J mice of 6, 22, or 30 months of age were obtained from the National Institutes of Aging mouse aging colony. Additionally 22 months old caloric restricted mice were also obtained from the National Institutes of Aging mouse aging colony. […]
as §2, with “conditions.” for “conditions. The separated proteins were then electrophoretically transferred to a polyvinylidene difluoride membrane (Perkin-Elmer).”, “temperature. […]” for “temperature.”

[1] = test system: HIF-1α target genes (PGK-1, Glut1, PKD1, VEGFa); experiment: qPCR of HIF-1α target genes in gastrocnemius of NMN-treated mice; format: in vivo; settings: 24-month-old mice; NMN 500 mg/kg IP, one week
Experimental: as §3
as §1, with “Primers were designed using the IDT software (IDT) and the primer sequences can be found in Table 1.” left out

[2] = Lactate levels in skeletal muscle of NMN-treated mice; format: in vivo; settings: 22-month-old mice; NMN one week
Source text: C57BL/6J mice of 6, 22, or 30 months of age were obtained from the National Institutes of Aging mouse aging colony. Additionally 22 months old caloric restricted mice were also obtained from the National Institutes of Aging mouse aging colony. EGLN1 KO, SIRT1 KO and SIRT1 OE mice were generated as previously described (Minamishima et al., 2008; Price et al., 2012). Mice were acclimated for at least one-week prior to sacrifice. 3, 6, 22 and 24-month-old mice were given interperitoneal (IP) injections of 500 mg NMN/kg body weight per day or the equivalent volume of PBS for 7 consecutive days at 5:00 pm and 7:00 am on day 8 and sacrificed 4 hr after last injection.

For NC(=O)c1ccc[n+]([C@@H]2O[C@H](COP(=O)([O-])O)[C@@H](O)[C@H]2O)c1 [NMN, nicotinamide mononucleotide], the “expression of mitochondrially-encoded ETC genes (ND1, CYTB, COX1, ATP6)” value (PGC-1α/β KO myotubes) was “induced expression of mitochondrially-encoded ETC genes”, the HIF-1α protein (HIF-1α; 22-month-old mice, gastrocnemius, NMN IP 500 mg/kg/day, 7 days, 500 mg/kg/day) was “reversed the age-induced decline in VHL and consequent accumulation of HIF-1α; also recorded: destabilizes HIF-1alpha in the skeletal muscle of old animals” and the HIF-1α in muscle (HIF-1α; 24-month-old mice, NMN 500 mg/kg IP, one week) was “reversed the age-induced increase in HIF-1α in muscle”. The “expression of HIF-1α target genes” value [1] was “suppressed the expression of HIF-1α target genes” and the “lactate levels in the skeletal muscle” value [2] was “suppressed the increase in lactate levels”.
